# Source: PubChem BioAssay (NCI)
#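 Values below derive from 48-hour exposures of cells grown in 96-well plates, with endpoints linearly interpolated between the two concentrations bracketing the appropriate inhibition level. At the GI50, growth is halved. The concentration for full growth arrest is given as TGI.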
# Columns and labels:
# Assay in all cases: growth of human tumour cells (NCI), 48 h
# [1] = test system: MDA-MB-231 breast
# [2] = test system: NCI-H23 lung
# [3] = test system: 786-0 renal
# [4] = test system: COLO 205 colon
# [5] = test system: MOLT-4 leukemia
# [6] = test system: SF-539 CNS
# [7] = test system: HS 578T breast
# [8] = test system: SNB-75 CNS
# [9] = test system: MCF7 breast
# [10] = test system: NCI-H226 lung
# [11] = test system: U251 CNS
# [12] = test system: HCT-116 colon
# [13] = test system: M14 melanoma
# [14] = test system: MDA-MB-468 breast
# [15] = test system: K-562 leukemia
# [16] = test system: MDA-MB-435
# [17] = test system: UO-31 renal
# [18] = test system: HOP-62 NSCLC
# [19] = test system: SK-MEL-5 melanoma
# [20] = test system: DU-145 prostate
# [21] = test system: SR leukemia
# [22] = test system: CCRF-CEM leukemia
# [23] = test system: SK-MEL-2 melanoma
# [24] = test system: OVCAR-3 ovarian
# [25] = test system: SF-295 CNS
# [26] = test system: IGROV1 ovarian
# [27] = test system: HOP-92 NSCLC
# [28] = test system: TK-10 renal
# [29] = test system: SF-268 CNS
# [30] = test system: EKVX NSCLC
# [31] = test system: OVCAR-5 ovarian
# [32] = test system: SN12C renal
# [33] = test system: NCI/ADR-RES ovarian
# [34] = test system: T-47D breast
# [35] = test system: KM12 colon
# [36] = test system: LOX IMVI melanoma
# [37] = test system: OVCAR-4 ovarian
# [38] = test system: UACC-257 melanoma
# [39] = test system: HCT-15 colon
# [40] = test system: SNB-19 CNS
# [41] = test system: A498 renal
# [42] = test system: HL-60(TB) leukemia
# [43] = test system: UACC-62 melanoma
# [44] = test system: SW-620 colon
# [45] = test system: MALME-3M melanoma
# [46] = test system: SK-MEL-28 melanoma
# [47] = test system: PC-3 prostate
# [48] = test system: BT-549 breast
# [49] = test system: RPMI-8226 leukemia
# [50] = test system: ACHN renal
# [51] = test system: NCI-H522 lung
# [52] = test system: NCI-H460 lung
# [53] = test system: HT29 colon
# [54] = test system: HCC-2998 colon
# [55] = test system: SK-OV-3 ovarian
# [56] = test system: CAKI-1 renal
# [57] = test system: RXF 393 renal
structure (smiles),measurement,setting,value
COc1cc2c3c(n(CCCN4CCC[C@@H]4CO)c(=O)c2cc1OC)-c1cc2c(cc1C3=O)OCO2,GI50,[1],1380 nM
same,TGI,[1],2750 nM
same,GI50,[2],207 nM
same,TGI,[2],1520 nM
same,GI50,[3],647 nM
same,TGI,[3],1810 nM
same,GI50,[4],1230 nM
same,TGI,[4],5270 nM
same,GI50,[5],< 23.3 nM
same,TGI,[5],4130 nM
same,GI50,[6],267 nM
same,TGI,[6],1150 nM
same,GI50,[7],4570 nM
same,TGI,[7],13000 nM
same,GI50,[8],630 nM
same,TGI,[8],5050 nM
same,GI50,[9],41.1 nM
same,TGI,[9],1450 nM
same,GI50,[10],771 nM
same,TGI,[10],2620 nM
same,GI50,[11],358 nM
same,TGI,[11],2200 nM
same,GI50,[12],451 nM
same,TGI,[12],2050 nM
same,GI50,[13],473 nM
same,TGI,[13],1910 nM
same,GI50,[14],318 nM
same,TGI,[14],1280 nM
same,GI50,[15],1270 nM
same,TGI,[15],> 100000 nM
same,GI50,[16],1220 nM
same,TGI,[16],2540 nM
same,GI50,[17],762 nM
same,TGI,[17],2140 nM
same,GI50,[18],191 nM
same,TGI,[18],1680 nM
same,GI50,[19],966 nM
same,TGI,[19],12800 nM
same,GI50,[20],223 nM
same,TGI,[20],1710 nM
same,GI50,[21],214 nM
same,TGI,[21],> 100000 nM
same,GI50,[22],27 nM
same,TGI,[22],2260 nM
same,GI50,[23],16000 nM
same,TGI,[23],34300 nM
same,GI50,[24],1350 nM
same,TGI,[24],2910 nM
same,GI50,[25],91.3 nM
same,TGI,[25],1470 nM
same,GI50,[26],1310 nM
same,TGI,[26],2640 nM
same,GI50,[27],4270 nM
same,TGI,[27],9630 nM
same,GI50,[28],16200 nM
same,TGI,[28],30600 nM
same,GI50,[29],404 nM
same,TGI,[29],2280 nM
same,GI50,[30],1440 nM
same,TGI,[30],2880 nM
same,GI50,[31],1460 nM
same,TGI,[31],2800 nM
same,GI50,[32],461 nM
same,TGI,[32],1810 nM
same,GI50,[33],356 nM
same,TGI,[33],2210 nM
same,GI50,[34],576 nM
same,TGI,[34],19100 nM
same,GI50,[35],1300 nM
same,TGI,[35],2910 nM
same,GI50,[36],226 nM
same,TGI,[36],1610 nM
same,GI50,[37],1700 nM
same,TGI,[37],3330 nM
same,GI50,[38],12000 nM
same,TGI,[38],28700 nM
same,GI50,[39],1260 nM
same,TGI,[39],2580 nM
same,GI50,[40],408 nM
same,TGI,[40],1900 nM
same,GI50,[41],14000 nM
same,TGI,[41],28300 nM
same,GI50,[42],871 nM
same,TGI,[42],3110 nM
same,GI50,[43],305 nM
same,TGI,[43],9230 nM
same,GI50,[44],399 nM
same,TGI,[44],2150 nM
same,GI50,[45],1370 nM
same,TGI,[45],2830 nM
same,GI50,[46],1650 nM
same,TGI,[46],3150 nM
same,GI50,[47],1180 nM
same,TGI,[47],2940 nM
same,GI50,[48],1370 nM
same,TGI,[48],15500 nM
same,GI50,[49],688 nM
same,TGI,[49],3950 nM
same,GI50,[50],293 nM
same,TGI,[50],1320 nM
same,GI50,[51],3050 nM
same,TGI,[51],20800 nM
same,GI50,[52],84.1 nM
same,TGI,[52],1300 nM
same,GI50,[53],1070 nM
same,TGI,[53],2410 nM
same,GI50,[54],1400 nM
same,TGI,[54],2690 nM
same,GI50,[55],520 nM
same,TGI,[55],10300 nM
same,GI50,[56],344 nM
same,TGI,[56],4960 nM
same,GI50,[57],966 nM
same,TGI,[57],2560 nM
